Experimental data reported in patent publication US20090312373A1, “METHODS FOR THE TREATMENT OF CANCER USING PIPERLONGUMINE AND PIPERLONGUMINE ANALOGS” (The General Hospital Corporation, priority 2008, published 2009).
Entries after “also recorded” stand apart in the source; their conditions may differ.

Key:
[1] = test system: EJ bladder carcinoma cells; experiment: Persistent effects after removal of the compound in EJ cells; format: cell-based, human
Procedure: EJ bladder carcinoma cells were treated with SP2007 (P10: 10 μM and P20: 20 μM), taxol (T10: 10 nM and T20: 20 nM) or DMSO vehicle control for either 20 hrs or 3 hrs. For the 20 hrs experiment, the percentages of remaining living cells ware measured on the end of the 20 hrs treatment time point. […] For the 3 hrs experiment, cells were washed 3 times with PBS after treatment with the and incubated for another 6 hrs in growing medium without SP2007, taxol or DMSO.

[2] = test system: survival proteins (Bc12, Survivin, XAIP); experiment: Exon gene array and Western blot of survival proteins in U2OS and EJ cells; format: cell-based, human; conditions: variety of concentrations
Procedure: Downstream target genes of piperlongumine (CT-007) were identified using an human exon gene array analysis of U2OS and EJ cancer cell lines (FIG. 12). In addition, the results from the gene array analysis were confirmed by Western blot (FIG. 13; See also Example 12 below).
U2OS cells and EJ cells were exposed to piperlongumine (10 μM) and aliquots of the cells were taken at 6 and 12 hours and lysed to determine the level of Twist expression. […] HCT116 cells (p53-wt cells) were exposed to piperlongumine and aliquots of the cells were taken at 6 and 12 hours and lysed to determine the level of CDIP expression. […] U2OS cells (p53-wt cells) and EJ cells (non-functional p53) were exposed to various concentrations of piperlongumine (piper) and aliquots of the cells were lysed to determine the level of survival protein expression.

[3] = test system: drug-resistant A549 lung cancer cell lines; experiment: Tumor cell killing in drug-resistant A549 lung cancer cell lines; format: cell-based, human
Procedure: (§1) The tumor growth inhibitory effect of piperlongumine was evaluated in a variety of human cancer cell lines. Cells were grown in ˜50-70% confluency and treated with piperlongumine and known anti-cancer agents at various concentrations (0.1-30 μM) and analyzed for cell death or viability by SRB (Sulforhodamine B) staining assay. The SRB assay is a well established assay that is used for the detection of cell death, viability or proliferation in drug screening.
Tumor cell killing by piperlongumine was also tested in drug-resistant A549 lung cancer cell lines and compared to known anti-cancer agents (see FIG. 19).

[4] = test system: p120ctn/vimentin/N-cadherin complex; experiment: Vimentin immunoprecipitation / p120ctn Western blot in EJ cells; format: cell-based, human; conditions: 10 μM
Procedure: It is well-established that Twist plays a major role in tumor development and metastasis. Thus, we investigated whether piperlongumine (SP2007) mechanistically regulates a key signaling pathway involving a complex of p120ctn/vimentin/N-cadherin which is a Twist target that promotes tumor cell migration and invasion/metastasis. EJ cells were treated with 10 μM piperlongumine or vehicle for 20 hours and cell lysates were subsequently immunoprecipitated by Vimentin antibody (Sigma Aldrich, St. Louis, Mo.) followed by western blot against p120ctn to analyze the association of the p120ctn/vimentin/N-cadherin complex.
EJ cells were treated with piperlongumine (SP2007) (10 μM) for 12 hours. Subsequently the cells were harvested and subjected to immunoprecipitations using vimentin antibodies (Sigma Aldrich) to precipitate the vimentin complex. Western blots were performed for p120 CTN and vimentin. DMSO (D) treated cells were used as control IP experiments.

[5] = Long-term piperlongumine treatment toxicity in mice; format: in vivo, mouse; conditions: 2.4 mg/kg injected multiple times for 4 weeks
Procedure: Piperlongumine (2.4 mg/kg) was injected into mice (8 mice per group) multiple times for 4 weeks. […] After 4 weeks the mice were killed and examined for changes in gross histology in target organs.

breast cancer tumors = experiment: Breast tumor in mice; format: in vivo, mouse
Procedure: We tested piperlongumine in colon tumor, breast, melanoma or bladder tumor xenograft-bearing mice to evaluate the anti-tumor effect of piperlongumine. We examined EJ human bladder cancer cell xenografts (non-functional p53) to evaluate anti-tumor effects. A total of 2×10^6 EJ cells or SW480 cells were implanted subcutaneously on opposite site flanks in each of six nude/nude mice in each group. When tumor masses grew to ˜5-10 mm in diameter, piperlongumine was administered intraperitoneally (28 ug per each intraperitoneal administration, total 1.2 mg/kg) every 48 hours for 12 days (6 times total).

[6] = test system: diploid fibroblasts, keratinocytes and breast epithelial cells; experiment: Cell death in non-transformed control cells; format: cell-based
human cancer cell lines = experiment: SRB (Sulforhodamine B) staining assay in human cancer cell lines; format: cell-based
Procedure: as §1

p53 = p53 acetylation Western blot in U2OS cells; format: cell-based, human; conditions: 6 hours
Procedure: U2OS cells were treated with piperlongumine (SP), the HDAC inhibitor TSA (trichostatin A ([…])) or the control DMSO for 6 hours. Cell extracts were fractionated in SDS-PAGE gel and analyzed by western blot.

[7] = test system: patient-derived breast cancer tumor samples; experiment: Histoculture Drug Response Assay (HDRA), breast; format: cell-based, human
Text: Piperlongumine (SP2007) was compared to a variety of known anti-cancer agents in a Histoculture Drug Response Assay (HDRA). HDRA is an assay that provides a reliable approach to determine the profile of in vivo chemo-sensitivity in cancer patients. The assay allows for a three-dimensional culture, the testing of patient tumor sensitivity, the evaluation of treatment option for individual patients with solid tumor types and a high correlation to clinical drug sensitivity (Flowers J L et al., Cancer Chemother. Pharmacol. 2003 September 52 (3): 253-261). The assays were performed by Anti-cancer Inc., (San Diego, Calif.). An average of twenty samples was tested for each tumor type.

COc1cc(/C=C/C(=O)N2CCC=CC2=O)cc(OC)c1OC [piperlongumine, N-(3,4,5,-trimethoxycinnamoyl)-Δ^3-piperidine-2-one]
killing of cancer cells after removal of the compound ([1]; 3 hrs treatment, washed, another 6 hrs in medium without compound): still able to kill cancer cells | percentage of remaining living cells ([1]; 20 hrs treatment, SP2007 10 and 20 μM, taxol 10 and 20 nM): No difference was observed | levels of expression of survival proteins [2]: significantly repressed; also recorded: inhibits the expression of survival proteins | tumor cell growth inhibition compared to other anti-cancer drugs [3]: more effective | p120 in the complex precipitated with vimentin ([4]; 12 hours): p120 was not in the complex | association of the p120ctn/vimentin/N-cadherin complex ([4]; 20 hours): dissociation | mortality [5]: None of the mice died | gross histology in kidney, liver and lung ([5]; hematoxilin and eosin staining): no change in gross histology | killing of breast cancer tumors (breast cancer tumors): effective killing | cell death/apoptosis in normal cells [6]: not in normal cells | tumor cell growth inhibition compared to known anti-cancer drugs (human cancer cell lines; 0.1-30 μM, variety of human cancer cell lines): as well as or better than other well-known anti-cancer drugs | cell growth (human cancer cell lines; glioblastoma cell lines): inhibits cell growth | cell growth (human cancer cell lines; human melanoma and ovarian cancer cell lines): inhibits cell growth | cell growth (human cancer cell lines; human renal cancer cell lines): inhibits cell growth | amount of acetylated p53 (p53): increased the amount of acetylated p53 to a level similar to TSA treated cells | total amount of p53 (p53; TSA 10 mM): did result in an increased | growth of patient-derived tumor samples [7]: inhibits growth
